{"source": "patent US20210177806A1", "about": "“COMBINATION PHARMACEUTICAL, PROPHYLACTIC OR SUPPRESSIVE AGENT FOR DEVELOPMENT OF RESISTANCE TO PYRIMIDINE ANTIMETABOLITE, AND METHOD OF TREATING DISEASE” (FUJIFILM Corporation, priority 2018, published 2021)", "key": {"SKM-1 leukemia cell line": {"tested_on": "SKM-1 leukemia cell line", "assay": "Cell proliferation assay for azacitidine after long-term culture (development of resistance)", "assay_type": "cell-based", "details": "for sensitivity to azacitidine (dose-response curve) / development of resistance: Aza group: SKM-1 treated 4 months with azacitidine only, 50 nmol/L to 1.6 mol/L", "protocol": "SKM-1 (National Institute of Biomedical Innovation, Health and Nutrition) was used as leukemia cell line. Cells were cultured in RPMI 1640 medium (Life Technologies) containing 1% penicillin/streptomycin and 10% fetal bovine serum (FBS) in an environment of 37° C., 5% CO2 and saturated water vapor.\nThe respective cultures were subjected to long-term culture. The concentration of azacitidine was 50 nmol/L at the start and was doubled at 2-4 week intervals. When cultured for 2 weeks after the azacitidine concentration had reached […], the treated groups were subjected to an assay for cell proliferation for azacitidine.\nIn the cell proliferation assay, cells were first suspended in a medium so that the number of cells was 111,111 cells/mL, and 90 μL (10,000 cells) each of the resultant was seeded in a 96-well plate (Corning Incorporated) per well. Next, 10 μL of a PBS solution of azacitidine (0, 3, 10, 30, 100 or 300 μmon) was added to the plate, and the cells were cultured in an environment of 37° C., 5% CO2 and saturated water vapor for 72 hours.\nThe relative number of the cancer cells after the above incubation was measured in terms of emission intensity using Cell Titer Glo (Promega Corporation) reagent by a plate reader (Envision, PerkinElmer Inc.). With the number of cells at a concentration of azacitidine of 0 μmol/L as 100% and the emission intensity of the sample to which no cells were added as 0%, the relative value of emission intensity was calculated at each azacitidine concentration. The results of each group were plotted with the azacitidine concentration (mon) on the horizontal axis and the emission intensity (relative value) on the vertical axis.\nAza: SKM-1 cells treated for 4 months with gradual increase in the concentration of azacitidine (50 nmol/L to […]) Aza+A1: SKM-1 cells which were treated in the same manner as in the Aza group and to which Compound A was added at 1 μmon throughout the period of treatment. Aza+A10: SKM-1 cells which were treated in the same manner as in the Aza group and to which Compound A was added at 1 μmon throughout the period of treatment"}, "[1]": {"tested_on": "intracellular CTP (cytidine triphosphate) in leukemia cells (SKM-1)", "assay": "Amount of intracellular CTP in leukemia cells after 4-month exposure", "assay_type": "cell-based", "protocol": "Intracellular CTP (cytidine triphosphate) competes with Aza-CTP (an active metabolite of Aza) and an increased amount of CTP may reduce sensitivity to Aza. […] Then, studies were conducted on the assumption that exposure to Compound A or a salt thereof or a hydrate thereof and Aza for a long time is effective for the recovery or retainment of sensitivity to Aza with the expectation that Compound A or a salt thereof or a hydrate thereof has an inhibitory effect on CTP increase.\nThe result is that a long-term (4 months) exposure of leukemia cells to a combination of Aza and Compound A.¾ hydrate caused a change in Aza sensitivity. […] Thus, treating an untreated MDS patient with a combination of Aza and Compound A or a salt thereof or a hydrate thereof is considered to be effective for maintaining their sensitivity to Aza."}, "MDS patients [2]": {"tested_on": "MDS patients", "assay": "Administration to MDS patients (Examples 2 to 5)", "assay_type": "in vivo", "details": "for effect on the development of resistance to pyrimidine antimetabolite: 28-day cycle", "protocol": "(§1) Compound A is administered to MDS patients (over 18 years of age) at a dose per one time of 400 mg/m^2 twice a day for 14 days. Administration of azacitidine is started on the day when the administration of Compound A is started. Azacitidine is administered subcutaneously or intravenously at a dose of 75 mg/m^2 for 7 days. The treatment cycle consists of 28 days. After the administration for 7 days, the administration is discontinued for 21 days.\nas §1, with “21” for “14”, “days.” for “days. Administration of azacitidine is started on the day when the administration of Compound A is started.”\nas §1, with “time of 300 mg/m^2 twice” for “time of 400 mg/m^2 twice”, “21 days. […] The day of the start of administration of Compound A may be earlier than the day of the start of administration of azacitidine. Furthermore, Compound A may be administered twice a day for 21 days as in Example 3.” for “21 days.”\nas §1, with “time of 200 mg/m^2 twice” for “time of 400 mg/m^2 twice”, “21 days. […] The day of the start of administration of Compound A may be earlier than the day of the start of administration of azacitidine. Furthermore, Compound A may be administered twice a day for 21 days as in Example 3.” for “21 days.”\nFor the MDS patients in Examples 2 to 5, the therapeutic effect is evaluated for the following items in comparison with the outcome of an azacitidine single agent+BSC (Best Supportive Care: Support therapy, transfusion, administration of antibiotics, analgesics, antipyretics, antiemetics, etc. as required) (International Phase III Test “Aza-001”). The period for which the development of resistance to pyrimidine antimetabolite is prevented or suppressed in the above patients is preferably 3 months or more, preferably 4 months or more, preferably 5 months or more, preferably 6 months or more, and preferably 1 year or more."}, "[3]": {"tested_on": "azacitidine-resistant leukemia cell lines", "details": "cited from earlier work"}, "MDS patients [4]": {"tested_on": "MDS patients", "details": "AZA-001 test, cited from earlier work"}}, "note": "“Also recorded” adds a separate entry of the source.", "data": [{"compound": "NC(=O)c1nc[nH]c1O", "note": "[Compound A, 5-Hydroxy-1H-imidazole-4-carboxamide]", "values": [{"measurement": "effect on the development of resistance to Aza", "setting": "SKM-1 leukemia cell line; 4-month exposure of naive SKM-1 to Aza and Compound A (1 mon or 10 μmon)", "value": "prophylactic or suppressive effect; also recorded: almost complete elimination of the development of resistance to Aza"}, {"measurement": "sensitivity to azacitidine (dose-response curve)", "setting": "SKM-1 leukemia cell line; Aza+A1 group: treated as Aza group plus Compound A at 1 μmon throughout", "value": "almost the same as that of the control group"}, {"measurement": "sensitivity to azacitidine (dose-response curve)", "setting": "SKM-1 leukemia cell line; Aza+A10 group: treated as Aza group plus Compound A at 10 mon throughout", "value": "almost the same as that of the control group"}, {"measurement": "amount of intracellular CTP", "setting": "[1]; Aza and Compound A combined from the start of the treatment", "value": "kept at a level similar to that in untreated cells"}, {"measurement": "effect on the development of resistance to pyrimidine antimetabolite", "setting": "MDS patients [2]; Example 2: Compound A 400 mg/m^2 twice a day for 14 days with azacitidine 75 mg/m^2 for 7 days", "value": "prophylactic or suppressive effect"}, {"measurement": "effect on the development of resistance to pyrimidine antimetabolite", "setting": "MDS patients [2]; Example 3: Compound A 400 mg/m^2 twice a day for 21 days with azacitidine 75 mg/m^2 for 7 days", "value": "prophylactic or suppressive effect"}, {"measurement": "side effects in patients", "setting": "MDS patients [2]; Example 4: Compound A 300 mg/m^2 twice a day for 14 days with azacitidine", "value": "side effects in patients can be reduced"}, {"measurement": "effect on the development of resistance to pyrimidine antimetabolite", "setting": "MDS patients [2]; Example 4: Compound A 300 mg/m^2 twice a day for 14 days with azacitidine 75 mg/m^2 for 7 days", "value": "prophylactic or suppressive effect"}, {"measurement": "side effects in patients", "setting": "MDS patients [2]; Example 5: Compound A 200 mg/m^2 twice a day for 14 days with azacitidine", "value": "side effects in patients can be reduced"}, {"measurement": "effect on the development of resistance to pyrimidine antimetabolite", "setting": "MDS patients [2]; Example 5: Compound A 200 mg/m^2 twice a day for 14 days with azacitidine 75 mg/m^2 for 7 days", "value": "prophylactic or suppressive effect"}, {"measurement": "cell growth inhibitory activity / cross resistance", "setting": "[3]", "value": "cell growth inhibitory activity without cross resistance"}]}, {"compound": "Nc1ncn([C@@H]2O[C@H](CO)[C@@H](O)[C@H]2O)c(=O)n1", "note": "[azacitidine, 4-amino-1-β-D-ribofuranosyl-1,3,5-triazin-2(1H)-one]", "values": [{"measurement": "sensitivity to azacitidine (dose-response curve) / development of resistance", "setting": "SKM-1 leukemia cell line", "value": "the dose-response curve shifted to the right"}, {"measurement": "sensitivity to azacitidine (dose-response curve) / development of resistance", "setting": "SKM-1 leukemia cell line; listed as Aza", "value": "resulting in the development of resistance"}, {"measurement": "emission intensity (relative value) / number of viable cells", "setting": "SKM-1 leukemia cell line; SKM-1, all groups, azacitidine 72 hours, Cell Titer Glo", "value": "decreased azacitidine concentration-dependently"}, {"measurement": "amount of intracellular CTP", "setting": "[1]; 4-month exposure to only Aza", "value": "an increase in the amount of intracellular CTP"}, {"measurement": "2-year survival rate", "setting": "MDS patients [4]", "value": 50.8, "unit": "%"}, {"measurement": "Hematologic response rate according to IWG criteria (2000 edition)", "setting": "MDS patients [4]", "value": 6.7, "unit": "%"}, {"measurement": "Hematological improvement according to IWG criteria (2000 edition)", "setting": "MDS patients [4]", "value": 49.2, "unit": "%"}, {"measurement": "Median time of AML transformation", "setting": "MDS patients [4]", "value": 20.7, "unit": "months"}, {"measurement": "Median time of AML transformation or death", "setting": "MDS patients [4]", "value": 13.0, "unit": "months"}, {"measurement": "Survival (median)", "setting": "MDS patients [4]", "value": 24.5, "unit": "months"}, {"measurement": "patients who achieved platelet transfusion-independence from dependence", "setting": "MDS patients [4]; no platelet transfusions for consecutive 56 days or more", "value": 42.1, "unit": "%"}, {"measurement": "patients who achieved red blood cell transfusion-independence from dependence", "setting": "MDS patients [4]; no red blood cell transfusions for consecutive 56 days or more", "value": 45.0, "unit": "%"}]}]}
